Reference: ChEMBL document CHEMBL1250452, “Bradykinin B1 receptor antagonists as potential therapeutic agents for pain” (J Med Chem, 2010)
Values belong to the molecule of their own block, whether it stands above or below them.

Legend:
B1 bradykinin receptor [1] = target: T1, B1 bradykinin receptor (Canis lupus familiaris, UniProt Q9BDQ5); assay: Antagonist activity at dog bradykinin B1 receptor; assay type: functional
T1 sequence (Q9BDQ5 whole entry): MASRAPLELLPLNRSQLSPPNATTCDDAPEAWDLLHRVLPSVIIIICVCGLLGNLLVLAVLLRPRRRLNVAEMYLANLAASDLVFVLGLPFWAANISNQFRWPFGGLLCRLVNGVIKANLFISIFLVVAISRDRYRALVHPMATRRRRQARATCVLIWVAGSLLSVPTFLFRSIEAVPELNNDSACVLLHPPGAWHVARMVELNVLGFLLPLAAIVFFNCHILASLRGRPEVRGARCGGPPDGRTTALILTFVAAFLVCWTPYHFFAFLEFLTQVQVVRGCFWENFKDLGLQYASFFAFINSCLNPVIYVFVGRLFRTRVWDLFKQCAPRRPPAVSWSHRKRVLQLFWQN

B1 bradykinin receptor [2] = target: T2, B1 bradykinin receptor (Oryctolagus cuniculus, UniProt P48748); assay: Inhibition of rabbit bradykinin B1 receptor
T2 sequence (P48748 whole entry): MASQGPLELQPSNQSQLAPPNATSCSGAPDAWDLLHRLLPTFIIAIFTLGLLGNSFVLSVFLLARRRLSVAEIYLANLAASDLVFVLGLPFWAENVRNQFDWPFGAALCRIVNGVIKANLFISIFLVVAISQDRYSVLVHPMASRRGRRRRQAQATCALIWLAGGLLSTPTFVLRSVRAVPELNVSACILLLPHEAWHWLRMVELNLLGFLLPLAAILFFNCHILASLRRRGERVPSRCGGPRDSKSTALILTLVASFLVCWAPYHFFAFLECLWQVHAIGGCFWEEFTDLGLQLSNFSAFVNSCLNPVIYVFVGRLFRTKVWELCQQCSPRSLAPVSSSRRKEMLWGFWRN

B1 bradykinin receptor [3] = target: T3, B1 bradykinin receptor (Rattus norvegicus, UniProt P97583); assay: Inhibition of rat bradykinin B1 receptor
T3 sequence (P97583 whole entry): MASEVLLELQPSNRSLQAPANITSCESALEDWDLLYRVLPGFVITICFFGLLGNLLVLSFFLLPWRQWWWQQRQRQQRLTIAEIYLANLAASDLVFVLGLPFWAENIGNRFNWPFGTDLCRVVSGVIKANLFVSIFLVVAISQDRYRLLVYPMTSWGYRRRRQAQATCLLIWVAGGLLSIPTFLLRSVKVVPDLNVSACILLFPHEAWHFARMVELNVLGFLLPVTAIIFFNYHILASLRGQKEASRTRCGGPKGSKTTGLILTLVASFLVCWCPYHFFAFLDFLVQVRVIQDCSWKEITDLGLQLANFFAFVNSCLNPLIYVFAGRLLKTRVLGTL

[4] = Half life in Sprague-Dawley rat at 2 mg/kg, iv; assay type: ADME, organism-based; set-up: dose 2 mg/kg, route intravenous; settings: in vivo
Rattus norvegicus = assay: Antiinflammatory activity in rat assessed as reversal of carrageenan-induced hyperalgesia at 3 mg/kg, ip; assay type: functional; settings: route intraperitoneal
[5] = Half life in Sprague-Dawley rat at 0.7 mg/kg, iv; assay type: ADME, organism-based; set-up: dose 0.7 mg/kg, route intravenous; settings: in vivo
[6] = Oral bioavailability in Sprague-Dawley rat at 7 mg/kg; assay type: ADME, organism-based; settings: in vivo
B1 bradykinin receptor [7] = target: T4, B1 bradykinin receptor (Macaca mulatta, UniProt Q8HZP2); assay: Binding affinity to monkey bradykinin B1 receptor
T4 sequence (Q8HZP2 whole entry): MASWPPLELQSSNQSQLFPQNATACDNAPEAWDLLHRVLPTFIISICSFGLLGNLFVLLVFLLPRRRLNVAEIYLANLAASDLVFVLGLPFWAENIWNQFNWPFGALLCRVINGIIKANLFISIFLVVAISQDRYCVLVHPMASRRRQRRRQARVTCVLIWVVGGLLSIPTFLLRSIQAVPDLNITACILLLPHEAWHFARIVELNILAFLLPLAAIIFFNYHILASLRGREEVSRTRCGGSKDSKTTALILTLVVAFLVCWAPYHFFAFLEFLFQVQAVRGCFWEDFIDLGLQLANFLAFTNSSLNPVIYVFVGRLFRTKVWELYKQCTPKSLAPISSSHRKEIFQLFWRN

B1 bradykinin receptor [8] = target: T5, B1 bradykinin receptor (Homo sapiens, UniProt P46663); assay: Antagonist activity at human bradykinin B1 receptor in human MR5 cells assessed as [3H]inositol phosphate accumulation; assay type: functional, cell-based
T5 sequence (P46663 whole entry): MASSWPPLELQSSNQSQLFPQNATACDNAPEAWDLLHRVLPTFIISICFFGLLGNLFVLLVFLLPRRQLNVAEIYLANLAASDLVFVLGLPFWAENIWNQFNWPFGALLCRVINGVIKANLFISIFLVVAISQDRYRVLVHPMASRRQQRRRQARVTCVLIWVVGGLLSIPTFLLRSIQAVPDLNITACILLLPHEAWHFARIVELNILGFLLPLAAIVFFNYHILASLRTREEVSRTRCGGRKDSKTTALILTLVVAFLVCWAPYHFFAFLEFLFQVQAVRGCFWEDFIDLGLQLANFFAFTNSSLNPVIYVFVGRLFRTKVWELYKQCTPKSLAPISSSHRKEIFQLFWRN

half-life [4]: 9.7 h
Compound: O=C(Nc1ccc(S(=O)(=O)Nc2ccccc2C(=O)c2ccccc2)cc1)OCC1CCCO1 (configuration not stated)

half-life [4]: 14 h
Compound: O=C(NCCCN1CCCCC1)Nc1ccc(S(=O)(=O)Nc2ccccc2C(=O)c2ccccc2)cc1

half-life [5]: 2.7 h
bioavailability [6]: 42%
Ki (B1 bradykinin receptor [7]): 7.7 nM
Compound: CN1CCN(C(=O)C2CCN(S(=O)(=O)c3ccc(NCC(c4ccccc4)c4ccccc4)c(C(=O)N4CCOCC4)c3)CC2)CC1

The remaining lines, values behind:

Compound: O=C(C[C@@H]1C(=O)Nc2ccccc2N1S(=O)(=O)c1ccc(Cl)c(Cl)c1)NCCc1ccc(C2=NCCN2)cc1
IC50 (B1 bradykinin receptor [1]): 16.3 nM
IC50 (B1 bradykinin receptor [2]): 0.26 nM
IC50 (B1 bradykinin receptor [3]): 163 nM

Compound: CCCN1C(=O)[C@H](NC(=O)Nc2ccc(N3CCN(c4ccncc4)CC3)cc2)N=C(CCc2ccccc2)c2ccccc21
Activity (Rattus norvegicus): 89%
half-life [4]: 2.7 h

Compound: CC(=O)Nc1ccc(S(=O)(=O)Nc2ccccc2C(=O)c2ccccc2)cc1
half-life [4]: 0.3 h

Compound: O=C(Nc1[nH]nc(C(=O)NCCC2CCN(c3ccncc3)CC2)c1Br)c1ccccc1Cl
IC50 (B1 bradykinin receptor [8]): 3.5 nM
